Tests used:
HeLa = assay: MTT assay, human cancer cells HeLa; type: cell-based
Description: (§1) Effect of platinum tetrachloride/hydroxyapatite (PtCl4/HAP) and hexachloroplatinate/hydroxyapatite (H2PtCl6/HAP) against human cancer cells (MTT assay)
(§2) According to “in vitro toxicity test using MTT”, which is an ordinary test method, MTT assay was performed for PtCl4/HAP (particle diameter 0.1 μm or less), and H2PtCl6/HAP (particle diameter 0.1 μm or less) by using 19 types of human cancer cells. PtCl4/HAP and H2PtCl6/HAP were used by adjusting the final dispersion concentration to 1.0% in a dispersion liquid each containing 10% platinum as a theoretical value. For comparison, MTT assay was performed for PtCl4 and CDDP. PtCl4 was dissolved at an adequate dose, and then used after serial dilution with PBS (−). For CDDP, injection liquid from Malco was used.

SiHa = assay: MTT assay, human cancer cells SiHa; type: cell-based
Description: as §1, §2

HT1080 = assay: MTT assay, human cancer cells HT1080; type: cell-based
Description: as §1, §2

A431 = assay: MTT assay, human cancer cells A431; type: cell-based
Description: as §1, §2

HSC3 = assay: MTT assay, human cancer cells HSC3; type: cell-based
Description: as §1, §2

HSC4 = assay: MTT assay, human cancer cells HSC4; type: cell-based
Description: as §1, §2

YES1 = assay: MTT assay, human cancer cells YES1; type: cell-based
Description: as §1, §2

YES2 = assay: MTT assay, human cancer cells YES2; type: cell-based
Description: as §1, §2

YES3 = assay: MTT assay, human cancer cells YES3; type: cell-based
Description: as §1, §2

YES4 = assay: MTT assay, human cancer cells YES4; type: cell-based
Description: as §1, §2

YES5 = assay: MTT assay, human cancer cells YES5; type: cell-based
Description: as §1, §2

YES6 = assay: MTT assay, human cancer cells YES6; type: cell-based
Description: as §1, §2

AZ521 = assay: MTT assay, human cancer cells AZ521; type: cell-based
Description: as §1, §2

Kato-III = assay: MTT assay, human cancer cells Kato-III; type: cell-based
Description: as §1, §2

NUGC-4 = assay: MTT assay, human cancer cells NUGC-4; type: cell-based
Description: as §1, §2

SW837 = assay: MTT assay, human cancer cells SW837; type: cell-based
Description: as §1, §2

HepG2 = assay: MTT assay, human cancer cells HepG2; type: cell-based
Description: as §1, §2

[1] = tested on: human lung cancer cell Lu65; assay: MTT assay, human lung cancer cell Lu65; type: cell-based
Description: as §1, §2

[2] = tested on: human lung cancer cell Lu99; assay: MTT assay, human lung cancer cell Lu99; type: cell-based
Description: as §1, §2

[3] = tested on: fibroblasts during resting stage; assay: Toxicity test during resting stage (MTT assay); type: cell-based; conditions: rat fibroblasts, confluent, 48 hours
From the text: (§3) A male mature rat was deeply anesthetized with ether, and disinfected by wiping carefully its tail with alcohol. The tail end part was cut by several centimeters, and the skin was removed from coccyx. Tendon was attached to the coccyx, and by culturing the same, fibroblasts can be recovered. Coccyx part was further cut finely with a sterilized pair of scissors, and adhered on a sterilized plastic plate with the cut surface down. After resting the plate for a while, DMEM supplemented with 10% FBS was added thereto. In approximately one week, fibroblasts germinated from the coccyx part, and proliferated in the plate. The fibroblasts collected from rat tail end were used for the following experiment.
Rat fibroblasts during proliferating stage were inoculated 2 times more than usual to a 96-well plate, that 100 μl of cell suspension at 2×10^4 cells/ml. Subsequently, it was cultured for 72 hours, in order to make cells in a confluent condition. After confirming with an inverted microscope that cells were in a complete confluent condition in each well, medium of each well was changed. Then, serially diluted test samples were added to the wells by aliquot of 10 μl, by the above-mentioned method. Culture was continued 48 hours after the addition, and subsequently, MTT assay was performed for PtCl4/HAP (particle diameter 0.1 μm or less), and H2PtCl6/HAP (particle diameter 0.1 μm or less), with similar procedures to those described in the above “toxicity test of PtCl4/HAP and H2PtCl6/HAP during proliferation stage”.

[4] = tested on: fibroblasts at confluency; assay: Microscopic observation of toxicity effect during resting stage; type: cell-based, rat; conditions: amount corresponding to 2 ppm of platinum content, fibroblasts at confluency, cultured for 48 hours
From the text: as §3
From the result of Example 7, 2 ppm which is a value of platinum content that kills 50% of fibroblasts in CDDP during resting stage was set as a standard. Then, CDDP, PtCl4/HAP, PtCl4 and HAP dispersion liquids in an amount corresponding to 2 ppm of platinum content, were added to the fibroblasts at confluency in a medium, and cultured for 48 hours.

[5] = IC50 converted to platinum concentration
[6] = cervical cancer, HAP agents particle diameter 0.1 μm or less

[NH2][Pt]([NH2])([Cl])[Cl] [CDDP, cisplatin]
Platinum content calculated from IC50 of human cancer cells by MTT assay (HeLa; [5]): 1.4 ppm | IC50 of human cancer cells by MTT assay (HeLa; [6]): 2.1 ppm | Platinum content calculated from IC50 of human cancer cells by MTT assay (SiHa; [5]): 9.8 ppm | IC50 of human cancer cells by MTT assay (SiHa; [6]): 15.1 ppm | IC50 of human cancer cells by MTT assay (HT1080; HT1080, fibrosarcoma, HAP agents particle diameter 0.1 μm or less): 25.5 ppm | Platinum content calculated from IC50 of human cancer cells by MTT assay (HT1080; HT1080, IC50 converted to platinum concentration): 16.6 ppm | IC50 of human cancer cells by MTT assay (A431; A431, squamous cell cancer, HAP agents particle diameter 0.1 μm or less): 5.7 ppm | Platinum content calculated from IC50 of human cancer cells by MTT assay (A431; A431, IC50 converted to platinum concentration): 3.7 ppm | IC50 of human cancer cells by MTT assay (HSC3; HSC3, oral cancer, HAP agents particle diameter 0.1 μm or less): 2.9 ppm | Platinum content calculated from IC50 of human cancer cells by MTT assay (HSC3; HSC3, IC50 converted to platinum concentration): 1.9 ppm | IC50 of human cancer cells by MTT assay (HSC4; HSC4, oral cancer, HAP agents particle diameter 0.1 μm or less): 4.5 ppm | Platinum content calculated from IC50 of human cancer cells by MTT assay (HSC4; HSC4, IC50 converted to platinum concentration): 2.9 ppm | IC50 of human cancer cells by MTT assay (YES1; YES1, esophageal cancer, HAP agents particle diameter 0.1 μm or less): 8.2 ppm | Platinum content calculated from IC50 of human cancer cells by MTT assay (YES1; YES1, IC50 converted to platinum concentration): 5.4 ppm | IC50 of human cancer cells by MTT assay (YES2; YES2, esophageal cancer, HAP agents particle diameter 0.1 μm or less): 1.7 ppm | Platinum content calculated from IC50 of human cancer cells by MTT assay (YES2; YES2, IC50 converted to platinum concentration): 1.1 ppm | IC50 of human cancer cells by MTT assay (YES3; YES3, esophageal cancer, HAP agents particle diameter 0.1 μm or less): 1.2 ppm | Platinum content calculated from IC50 of human cancer cells by MTT assay (YES3; YES3, IC50 converted to platinum concentration): 0.8 ppm | IC50 of human cancer cells by MTT assay (YES4; YES4, esophageal cancer, HAP agents particle diameter 0.1 μm or less): 1.3 ppm | Platinum content calculated from IC50 of human cancer cells by MTT assay (YES4; YES4, IC50 converted to platinum concentration): 0.8 ppm | IC50 of human cancer cells by MTT assay (YES5; YES5, esophageal cancer, HAP agents particle diameter 0.1 μm or less): 10.0 ppm | Platinum content calculated from IC50 of human cancer cells by MTT assay (YES5; YES5, IC50 converted to platinum concentration): 6.5 ppm | IC50 of human cancer cells by MTT assay (YES6; YES6, esophageal cancer, HAP agents particle diameter 0.1 μm or less): 0.8 ppm | Platinum content calculated from IC50 of human cancer cells by MTT assay (YES6; YES6, IC50 converted to platinum concentration): 0.5 ppm | IC50 of human cancer cells by MTT assay (AZ521; AZ521, gastric cancer, HAP agents particle diameter 0.1 μm or less): 1.0 ppm | Platinum content calculated from IC50 of human cancer cells by MTT assay (AZ521; AZ521, IC50 converted to platinum concentration): 0.7 ppm | Platinum content calculated from IC50 of human cancer cells by MTT assay (Kato-III; KATO-III, IC50 converted to platinum concentration): 1.8 ppm | IC50 of human cancer cells by MTT assay (Kato-III; Kato-III, gastric cancer, HAP agents particle diameter 0.1 μm or less): 2.7 ppm | IC50 of human cancer cells by MTT assay (NUGC-4; NUGC-4, gastric cancer, HAP agents particle diameter 0.1 μm or less): 15.6 ppm | Platinum content calculated from IC50 of human cancer cells by MTT assay (NUGC-4; NUGC-4, IC50 converted to platinum concentration): 10.1 ppm | IC50 of human cancer cells by MTT assay (SW837; SW837, colon cancer, HAP agents particle diameter 0.1 μm or less): 40.2 ppm | Platinum content calculated from IC50 of human cancer cells by MTT assay (SW837; SW837, IC50 converted to platinum concentration): 26.1 ppm | IC50 of human cancer cells by MTT assay (HepG2; HepG2, liver cancer, HAP agents particle diameter 0.1 μm or less): 5.0 ppm | Platinum content calculated from IC50 of human cancer cells by MTT assay (HepG2; HepG2, IC50 converted to platinum concentration): 5.0 ppm | IC50 of human cancer cells by MTT assay ([1]; Lu65, lung cancer, HAP agents particle diameter 0.1 μm or less (Table 1)): 2.7 ppm | Platinum content calculated from IC50 of human cancer cells by MTT assay ([1]; Lu65, IC50 converted to platinum concentration (Table 2)): 2.7 ppm | IC50 of human cancer cells by MTT assay ([2]; Lu99, lung cancer, HAP agents particle diameter 0.1 μm or less (Table 1)): 0.8 ppm | Platinum content calculated from IC50 of human cancer cells by MTT assay ([2]; Lu99, IC50 converted to platinum concentration (Table 2)): 0.8 ppm | Net Pt: platinum content wherein IC50 is converted to platinum concentration, resting stage [3]: 1.9 ppm | IC50 in the toxicity test during resting stage ([3]; HAP agents particle diameter 0.1 μm or less): 2.9 ppm | Microscopic observation of cell form of cultured fibroblasts [4]: most of the cells had a round form
